{"source": "patent US11084789B2", "about": "“Mast-cell modulators and uses thereof” (Beth Israel Deaconess Medical Center, Inc., priority 2016, dated 2021)", "key": {"[1]": {"tested_on": "wounds of diabetic (STZ) C57B16 mice", "test": "Wound healing in diabetic mice", "assay_type": "in vivo", "conditions": "DM mice", "description": "(§1) C57B16 mice were made diabetic (DM) using Streptozotocin (STZ) and rabbits were made DM using alloxan. A 10-day wound-healing period was chosen since at least 80% wounds in non-DM mice and rabbits heal by that time-point. A dressing based on an alginate bandage for topical sustained release of Compound 1 was generated following the methods described in WO 2014/169250, and was then applied the shaved dorsum of DM mice either before (pre-wound) or after wounds (post-wound) were introduced. A comparison was made with the FDA-approved MC stabilizer, disodium cromoglycate (DSCG), 50 mg/kg DSCG (Intraperitoneal (ip) daily, 10 consecutive days prior to wounding) in non-DM and DM mice followed by wound procedure. Wound healing was monitored for 10 days."}, "[2]": {"tested_on": "macrophages in skin of DM mice", "test": "M1/M2 macrophages in intact skin of diabetic mice", "assay_type": "in vivo", "description": "as §1"}, "CRAC channel": {"molecular_target": "CRAC channel (Rattus norvegicus, UniProt Q5M848)", "sequence (Q5M848 whole entry)": "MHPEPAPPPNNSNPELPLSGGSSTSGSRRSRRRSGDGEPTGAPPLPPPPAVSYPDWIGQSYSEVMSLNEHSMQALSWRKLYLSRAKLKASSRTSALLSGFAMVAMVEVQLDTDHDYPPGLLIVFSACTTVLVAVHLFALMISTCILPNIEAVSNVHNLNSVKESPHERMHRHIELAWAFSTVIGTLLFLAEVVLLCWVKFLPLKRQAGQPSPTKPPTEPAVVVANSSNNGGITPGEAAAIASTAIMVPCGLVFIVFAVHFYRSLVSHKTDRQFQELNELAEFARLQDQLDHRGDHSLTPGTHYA", "sequence (P84903 23-685, further chain)": "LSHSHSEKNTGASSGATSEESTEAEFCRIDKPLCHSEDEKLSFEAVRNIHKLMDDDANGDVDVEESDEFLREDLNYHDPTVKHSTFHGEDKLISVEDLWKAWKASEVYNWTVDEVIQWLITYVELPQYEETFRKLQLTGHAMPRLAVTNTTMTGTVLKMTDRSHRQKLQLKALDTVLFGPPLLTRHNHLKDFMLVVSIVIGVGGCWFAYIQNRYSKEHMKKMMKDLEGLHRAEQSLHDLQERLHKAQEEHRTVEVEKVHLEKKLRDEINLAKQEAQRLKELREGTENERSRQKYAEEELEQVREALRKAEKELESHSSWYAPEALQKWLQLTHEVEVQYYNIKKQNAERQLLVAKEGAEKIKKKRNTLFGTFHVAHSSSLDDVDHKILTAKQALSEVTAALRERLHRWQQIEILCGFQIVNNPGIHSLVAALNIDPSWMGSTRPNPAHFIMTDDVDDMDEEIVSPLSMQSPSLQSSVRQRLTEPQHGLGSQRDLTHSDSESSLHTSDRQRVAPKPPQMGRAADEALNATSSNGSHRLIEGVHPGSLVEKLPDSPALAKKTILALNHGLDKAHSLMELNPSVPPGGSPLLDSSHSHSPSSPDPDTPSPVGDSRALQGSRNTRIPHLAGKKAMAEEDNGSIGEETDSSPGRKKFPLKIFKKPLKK", "test": "Inhibition of thapsigargin-induced calcium influx (intracellular Ca2+, Fluo-4NW) in RBL-2H3 cells", "assay_type": "cell-based, rodent", "conditions": "1 μM thapsigargin, 60 min compound incubation", "protocol": "RBL-2H3 cells (ATCC) were seeded in 96-well plate at 4×10^4 cells per well in DMEM-supplemented with 2% FBS and allowed to adhere overnight. Culture medium was then replaced with 50 μl of Ca^2+-free Tyrode solution to load Ca^2+-probe Fluo-4NW (Molecular Probe, Thermo Fisher, MA, USA) at 1:1 to the cells. New compound at indicated concentration was supplied during the probe loading from the beginning. Cells were incubated in the presence or absence of new compound for 60 minutes in the Ca^2+-free medium at 37° C. During the last 5 minutes of incubation, cells were treated with 1 μM thapsigargin (Sigma Aldrich) to deplete [Ca^2+]ER. 20 mM CaCl2 in saline solution was supplemented back to the [Ca^2+]ER-depleted cells to be 2 mM as final. Cell medium was removed 1 minute after Ca^2+ reloading, and changes in Fluo-4NW fluorescence (RFU) were recorded with the multi-mode plate reader (FilterMax F5, Molecular Devices/Thermo Fisher Scientific, MA, USA) at an excitation wavelength of 485 nm and an emission wavelength of 535 nm.\n(§2) IC50 and EC50 were calculated by nonlinear regression using Prims Graphpad software. Statistical analysis was performed by one-way ANOVA and post-hoc test (Tukey's test).\nInhibitory activity of calcium influx by the described compounds was determined using the RBL-2H3 rodent MC cell line as the primary in vitro assay. […]"}, "TNFα": {"tested_on": "TNFα", "test": "TNFα protein secretion by activated RBL cells (ELISA)", "assay_type": "cell-based, rodent", "conditions": "secreted TNFα (pre-stored plus de novo) 4 hours after Ca2+ re-exposure", "protocol": "(§3) [Ca^2+]ER in RBL2H3 cells were depleted by Tg in the same manner in the presence of the CRAC channel blockers as for [Ca^2+]i measurement but without loading the cells with Fluo-4NW. Then 200 μl of DMEM-3% FBS (containing 3 mM Ca^2+) was supplemented back in the presence of the corresponding concentration of CRAC channel blockers. Thirty minutes after Ca^2+-add back culture supernatant was collected for degranulation measurement. Degranulation was measured as secreted β-hexosaminidase according to the protocol of the assay kit (Sigma-Aldrich, MO, USA). Nuclear fraction was prepared from the cells for NFAT by using a subcellular protein fractionation kit (NE-PER™ Nuclear and Cytoplasmic Extraction Reagents, Pierce Biotechnology, Thermo Fisher Scientific, MA, USA). Nuclear NFAT-c1 was measured with an ELISA kit (Active Motif, CA, USA). At this time point TNFα was measured as pre-stored release with ELISA kits (R&D Systems, MN, USA). In a part after Ca^2+ add back incubation was prolonged for 4 h to measure de novo production of the cytokine TNFα.\nas §2\nMast cells can secrete pre-stored TNFα immediately upon activation, as well as de novo synthesized TNFα that takes a few hours to produce. RBL cells were activated similarly as described above, in the presence of various concentrations of a CRAC channel blocker. 4 Hours after RBL cells were re-exposed to Ca^2+, secreted TNFα (which accounted for the combined protein from pre-stored and de novo synthesized TNFα) in the supernatants were measured by ELISA."}, "RBL-2H3 cells": {"tested_on": "RBL-2H3 cells", "test": "Mast cell degranulation: β-hexosaminidase release from thapsigargin-activated RBL-2H3 cells", "assay_type": "cell-based, rodent", "conditions": "1 μM thapsigargin", "protocol": "as §3\nCompound 12 was used to determine the inhibition of MC degranulation by measuring the release of pre-stored β-hexosaminidase 03-hex) upon MC activation. […] 30 Minutes after assay media were replenished with extracellular Ca^2+, supernatants and cell lysates were analyzed for β-hex concentrations by ELISA."}, "NFAT-c1": {"tested_on": "NFAT-c1", "test": "Nuclear translocation of NFAT in activated RBL cells (nuclear NFAT-c1 ELISA)", "assay_type": "cell-based, rodent", "protocol": "as §3\nThe inhibition of nuclear translocation of the nuclear factor of activated T-cells (NFAT) by compound 12 in activated MCs was determined. […] Nuclear fraction was prepared from the cells by subcellular protein fractionation, and the nuclear NFAT-c1 content was measured by ELISA. […]"}}, "note": "Entries after “also recorded” stand apart in the source; their conditions may differ.", "data": [{"smiles": "O=C(Nc1c(F)cccc1F)c1cn(Cc2ccc(Cl)cc2Cl)c2ccccc12", "note": "[Compound 1, 1-[(2,4-dichlorophenyl)methyl]-N-(2,6-difluorophenyl)indole-3-carboxamide]", "values": [{"measurement": "wound healing", "setting": "[1]; topical alginate dressing, 10 days pre-wounding or 10 days post-wounding, monitored 10 days", "result": "improved wound healing similar to systemic DSCG pre-treatment"}, {"measurement": "number of M2 macrophages in skin", "setting": "[2]; treatment for 10 days without any wound", "result": "increased the number of M2 macrophages"}]}, {"smiles": "O=C(Nc1nn(Cc2ccc(Cl)cc2Cl)c2ccccc12)c1ccccc1F", "note": "[Compound 3, N-[1-[(2,4-dichlorophenyl)methyl]indazol-3-yl]-2-fluoro-benzamide]", "values": [{"measurement": "IC50", "setting": "CRAC channel", "result": 29, "unit": "µM"}]}, {"smiles": "O=C(Nc1c(F)cccc1F)c1nn(Cc2ccc(Cl)cc2Cl)c2ccccc12", "note": "[Compound 7, 1-[(2,4-dichlorophenyl)methyl]-N-(2,6-difluorophenyl)indazole-3-carboxamide]", "values": [{"measurement": "IC50", "setting": "TNFα", "result": 0.47, "unit": "µM"}]}, {"smiles": "O=C(Nc1c(F)cccc1Cl)c1nn(Cc2ccc(Cl)cc2Cl)c2ccccc12", "note": "[Compound 8, N-(2-chloro-6-fluoro-phenyl)-1-[(2,4-dichlorophenyl)methyl]indazole-3-carboxamide]", "values": [{"measurement": "IC50", "setting": "TNFα", "result": 0.74, "unit": "µM"}]}, {"smiles": "O=C(Nc1ccncc1F)c1cn(Cc2ccc(Cl)cc2Cl)c2ccccc12", "note": "[Compound 11, 1[(2,4-dichlorophenyl)methyl]-N-(3-fluoro-4-pyridyl)indole-3-carboxamide]", "values": [{"measurement": "IC50", "setting": "TNFα", "result": 0.58, "unit": "µM"}]}, {"smiles": "O=C(Nc1nn(Cc2ccc(Cl)cc2Cl)c2ccccc12)c1ccncc1F", "note": "[Compound 12, N-[1-[(2,4-dichlorophenyl)methyl]indazol-3-yl]-3-fluoro-pyridine-4-carboxamide]", "values": [{"measurement": "inhibition of β-hex release at the highest concentration tested", "setting": "RBL-2H3 cells; 40% of β-hex released without inhibitor", "result": "nearly complete inhibition of β-hex release"}, {"measurement": "inhibition of β-hex release", "setting": "RBL-2H3 cells; 30 min after Ca2+ add back, various concentrations", "result": "significantly and dose-dependently inhibited the release of β-hex; also recorded: dose-dependent inhibition"}, {"measurement": "nuclear fraction of NFAT-c1 in activated RBL cells", "setting": "NFAT-c1; 1 μM thapsigargin, 30 min after Ca2+ add back, various concentrations, 5-fold increase without blocker", "result": "significantly and dose-dependently reduced the nuclear fraction of NFAT-c1; also recorded: dose-dependent inhibition"}, {"measurement": "levels of nuclear NFAT at 10 μM and higher concentrations", "setting": "NFAT-c1; 10 μM and higher, activated RBL cells", "result": "restore the levels of nuclear NFAT to that of resting MCs"}, {"measurement": "IC50", "setting": "TNFα", "result": 0.28, "unit": "µM"}]}, {"smiles": "O=C(Nc1ccc(F)cc1F)c1nn(Cc2ccc(Cl)cc2Cl)c2ccccc12", "note": "[Compound 14, 1-[(2,4-dichlorophenyl)methyl]-N-(2,4-difluorophenyl)indazole-3-carboxamide]", "values": [{"measurement": "IC50", "setting": "TNFα", "result": 0.64, "unit": "µM"}]}, {"smiles": "O=C(Nc1c(F)cncc1F)c1nn(Cc2ccc(Cl)cc2Cl)c2ccccc12", "note": "[Compound 15, 1-[(2,4-dichlorophenyl)methyl]-N-(3,5-difluoro-4-pyridyl)indazole-3-carboxamide]", "values": [{"measurement": "IC50", "setting": "TNFα", "result": 0.14, "unit": "µM"}]}, {"smiles": "O=C([O-])c1cc(=O)c2c(OCC(O)COc3cccc4oc(C(=O)[O-])cc(=O)c34)cccc2o1.[Na+].[Na+]", "note": "[DSCG, disodium cromoglycate, reference compound]", "values": [{"measurement": "wound healing", "setting": "[1]; 50 mg/kg ip daily, 10 consecutive days prior to wounding, p<0.05", "result": "improved diabetic mouse wound healing"}, {"measurement": "M1/M2 ratio in intact skin", "setting": "[2]; DSCG treatment", "result": "reduced M1/M2 ratio in intact skin"}]}]}
